# Source: ChEMBL document CHEMBL2434927, “Indenoindoles and cyclopentacarbazoles as bioactive compounds: synthesis and biological applications” (Eur J Med Chem, 2013)
# Key:
# [1] = target: Casein kinase II (Homo sapiens, UniProt P19784+P67870+P68400); assay: Inhibition of human CK2; assay type: protein-complex assay
# [2] = tested on: MC-38; assay: Antitumor activity against mouse C38 cells allografted in B6D2F1 mouse assessed as tumor regression at 25 mg/kg, iv administered on days 10, 17 and 24 measured for 10 weeks relative to control; assay type: functional
# [3] = target: T1, NUAK family SNF1-like kinase 1 (Homo sapiens, UniProt O60285); assay: Inhibition of human ARK5
# T1 sequence (O60285 whole entry): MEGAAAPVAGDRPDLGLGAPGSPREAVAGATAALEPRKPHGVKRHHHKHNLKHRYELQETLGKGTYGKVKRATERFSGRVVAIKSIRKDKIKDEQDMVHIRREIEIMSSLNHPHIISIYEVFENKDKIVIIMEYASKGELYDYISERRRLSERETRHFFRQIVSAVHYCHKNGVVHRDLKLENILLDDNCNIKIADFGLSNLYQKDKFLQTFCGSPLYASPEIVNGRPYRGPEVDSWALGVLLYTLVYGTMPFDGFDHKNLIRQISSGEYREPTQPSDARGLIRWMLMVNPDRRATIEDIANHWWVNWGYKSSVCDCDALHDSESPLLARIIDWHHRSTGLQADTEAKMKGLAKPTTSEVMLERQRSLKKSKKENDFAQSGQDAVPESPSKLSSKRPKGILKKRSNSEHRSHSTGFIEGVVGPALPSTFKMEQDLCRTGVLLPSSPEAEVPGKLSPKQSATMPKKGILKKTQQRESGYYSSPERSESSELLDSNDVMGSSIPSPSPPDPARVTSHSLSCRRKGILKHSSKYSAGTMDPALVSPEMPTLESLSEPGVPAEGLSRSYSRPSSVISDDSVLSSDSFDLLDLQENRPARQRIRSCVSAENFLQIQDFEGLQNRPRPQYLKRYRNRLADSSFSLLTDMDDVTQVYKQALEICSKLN
# [4] = Cytotoxicity against human KYSE-70 cells assessed as growth inhibition; assay type: functional
# [5] = tested on: 5637; assay: Cytotoxicity against human 5637 cells assessed as growth inhibition; assay type: functional
# [6] = target: T2, Receptor-type tyrosine-protein kinase FLT3 (Homo sapiens, UniProt P36888); assay: Inhibition of human FLT3
# T2 sequence (P36888 whole entry): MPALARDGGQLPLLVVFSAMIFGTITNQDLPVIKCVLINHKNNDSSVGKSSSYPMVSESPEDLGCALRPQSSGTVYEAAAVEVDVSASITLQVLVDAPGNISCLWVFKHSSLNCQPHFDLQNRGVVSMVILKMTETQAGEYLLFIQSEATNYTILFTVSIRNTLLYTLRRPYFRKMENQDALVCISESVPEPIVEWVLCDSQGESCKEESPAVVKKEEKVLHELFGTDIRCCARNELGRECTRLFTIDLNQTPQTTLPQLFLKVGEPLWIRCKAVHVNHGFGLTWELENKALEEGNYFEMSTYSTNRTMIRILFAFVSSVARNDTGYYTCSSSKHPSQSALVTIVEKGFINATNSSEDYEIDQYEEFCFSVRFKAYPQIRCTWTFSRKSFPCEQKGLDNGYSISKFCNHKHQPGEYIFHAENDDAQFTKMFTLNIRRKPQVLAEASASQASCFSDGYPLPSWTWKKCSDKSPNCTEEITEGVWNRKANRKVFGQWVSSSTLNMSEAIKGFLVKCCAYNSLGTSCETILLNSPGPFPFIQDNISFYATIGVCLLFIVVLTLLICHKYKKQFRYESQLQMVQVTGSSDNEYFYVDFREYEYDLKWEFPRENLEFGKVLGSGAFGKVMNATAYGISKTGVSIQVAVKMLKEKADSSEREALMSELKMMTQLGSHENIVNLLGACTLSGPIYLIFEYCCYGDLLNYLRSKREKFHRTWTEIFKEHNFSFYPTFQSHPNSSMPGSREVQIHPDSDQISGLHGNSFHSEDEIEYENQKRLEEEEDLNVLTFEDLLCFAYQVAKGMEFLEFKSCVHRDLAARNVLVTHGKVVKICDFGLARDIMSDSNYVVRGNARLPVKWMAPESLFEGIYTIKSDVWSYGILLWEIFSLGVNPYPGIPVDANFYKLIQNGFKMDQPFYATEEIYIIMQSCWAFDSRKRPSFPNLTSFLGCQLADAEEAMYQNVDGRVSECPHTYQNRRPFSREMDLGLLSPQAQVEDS
# [7] = tested on: A-427; assay: Cytotoxicity against human A427 cells assessed as growth inhibition; assay type: functional
# [8] = Cytotoxicity against human LCLC cells assessed as growth inhibition; assay type: functional
# [9] = tested on: SISO; assay: Cytotoxicity against human SISO cells assessed as growth inhibition; assay type: functional
# [10] = tested on: MCF7; assay: Cytotoxicity against human MCF7 cells assessed as growth inhibition; assay type: functional
# Chain of Casein kinase II (P67870 whole entry): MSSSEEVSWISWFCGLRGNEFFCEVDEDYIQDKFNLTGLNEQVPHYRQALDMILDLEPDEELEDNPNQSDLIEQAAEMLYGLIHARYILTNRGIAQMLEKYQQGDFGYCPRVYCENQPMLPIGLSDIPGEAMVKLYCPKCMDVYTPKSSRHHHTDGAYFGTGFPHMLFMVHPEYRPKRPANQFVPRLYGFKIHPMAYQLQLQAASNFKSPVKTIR
# Chain of Casein kinase II (P68400 whole entry): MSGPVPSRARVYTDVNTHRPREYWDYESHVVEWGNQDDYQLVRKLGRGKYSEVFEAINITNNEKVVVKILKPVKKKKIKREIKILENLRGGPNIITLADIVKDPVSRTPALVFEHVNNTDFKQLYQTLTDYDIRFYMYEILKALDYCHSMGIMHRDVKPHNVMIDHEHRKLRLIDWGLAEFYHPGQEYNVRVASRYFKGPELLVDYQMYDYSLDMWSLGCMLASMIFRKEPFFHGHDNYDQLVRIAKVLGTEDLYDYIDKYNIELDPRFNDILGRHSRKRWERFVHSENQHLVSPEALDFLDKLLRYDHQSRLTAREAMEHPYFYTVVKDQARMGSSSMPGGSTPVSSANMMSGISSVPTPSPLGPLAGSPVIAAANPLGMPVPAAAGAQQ
# Chain of Casein kinase II (P19784 whole entry): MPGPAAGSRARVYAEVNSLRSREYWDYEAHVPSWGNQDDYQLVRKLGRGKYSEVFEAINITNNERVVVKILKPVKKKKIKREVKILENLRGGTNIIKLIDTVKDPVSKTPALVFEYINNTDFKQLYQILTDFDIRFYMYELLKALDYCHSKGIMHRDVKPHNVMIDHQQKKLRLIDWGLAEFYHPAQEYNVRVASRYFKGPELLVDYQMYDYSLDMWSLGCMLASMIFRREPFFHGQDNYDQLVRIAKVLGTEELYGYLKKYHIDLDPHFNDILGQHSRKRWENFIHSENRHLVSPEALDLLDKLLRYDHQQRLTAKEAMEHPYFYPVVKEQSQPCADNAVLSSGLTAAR
structure (smiles),measurement,setting,value
O=c1ccc(=O)c2c1c1c(=O)c3ccccc3c1n2Cc1ccccc1,IC50,[1],1490 nM
C#C[C@H](C)O/N=C1/c2cc(OC)c(OC)cc2-c2[nH]c3ccc(OCCN(C)C)cc3c21,Activity,[2],100%
CC(C)n1c2c(c3c1-c1ccccc1C3=O)C(=O)CCC2=O,IC50,[3],570 nM
same,GI,[4],1.3 µM
same,GI,[5],1.3 µM
same,IC50,[6],180 nM
same,GI,[7],1.3 µM
same,GI,[8],1.3 µM
same,GI,[9],1.3 µM
same,GI,[10],1.3 µM
